The structures appear in SMILES notation. Structures can show the parent of a compound that is named as a salt.

For the first experiment, the system named is Escherichia coli ATCC 25922. The experiment in a line: 50% growth inhibitory concentration (IC50) determination, Iso-Sensitest broth dilution. In kind it is cell-based. Particulars: Escherichia coli, ATCC25922, 16 h, strain Escherichia coli ATCC 25922; 10-point broth dilution, optical density at 600 nm over 16 h; read-out: Escherichia coli growth inhibition IC50. The procedure: 50% Growth Inhibitory Concentration (IC50) Determination
The in vitro antimicrobial activity of the compounds was determined according to the following procedure:
The assay used a 10-point Iso-Sensitest broth dilution method to measure quantitatively the in vitro
ATCC 25922, Acinetobacter baumannii ATCC 17961, Klebsiella pneumoniae ATCC 43816 and Staphylococcus aureus ATCC 29213.
Stock compounds in DMSO were serially twofold diluted (e.g. range from 50 to 0.097 μM final concentration) in 384 wells microtiter plates and inoculated with 50 μL of the bacterial suspension in Iso-
ell of 50 μL/well. Microtiter plates were incubated at 35±2° C.
Bacterial cell growth was determined with the measurement of optical density at λ=600 nm each 20 minutes over a time course of 16 h.
Growth inhibition was calculated during the logarithmic growth of the bacterial cells with
Table 1 provides the 50% growth inhibitory concentrations (IC50) in micromoles per liter of the compounds of present invention obtained against the strain Escherichia coli ATCC 25922.
Background: Dilution methods test growth across graded concentrations, often in twofold steps.
As to `Cc1ncc(F)c2c1CC(NC1CC(C3CN(c4cnc5c(n4)NC(=O)CO5)C(=O)O3)C1)C2` (single isomer, unassigned; isomer a) [Example 328, 6-[5-[3-[(4-fluoro-1-methyl-6,7-dihydro-5H-cyclopenta[c]pyridin-6-yl)amino]cyclobutyl]-2-oxo-1,3-oxazolidin-3-yl]-4H-pyrazino[2,3-b][1,4]oxazin-3-one, Isomer A], the IC50 – broadly, the concentration at which inhibition is half-maximal – worked out at 885 nM.
In the case of `N#Cc1ncc(F)c2c1CC(CNCCC1CN(c3ccc4c(n3)NC(=O)CO4)C(=O)O1)C2` (stereo not shown) [Example 37, 4-fluoro-6-[[2-[2-oxo-3-(3-oxo-4H-pyrido[3,2-b][1,4]oxazin-6-yl)-1,3-oxazolidin-5-yl]ethylamino]methyl]-6,7-dihydro-5H-cyclopenta[c]pyridine-1-carbonitrile; formic acid], the IC50 is under 97.7 nM.
The same measure, in the same setting: with `CN(C)C(=O)COc1cc(F)c2c(c1)CC(CNCCC1CN(c3ccc4c(n3)NC(=O)CO4)C(=O)O1)C2` (stereo not shown) [Example 77, 2-[[7-fluoro-2-[[2-[2-oxo-3-(3-oxo-4H-pyrido[3,2-b][1,4]oxazin-6-yl)-1,3-oxazolidin-5-yl]ethylamino]methyl]-2,3-dihydro-1H-inden-5-yl]oxy]-N,N-dimethylacetamide] the figure was 393 nM.
Turning to `N#Cc1cccc2c1CC(CNCCC1OC(=O)N(c3ccc4c(n3)NC(=O)CO4)C1CN)C2` (racemic) [Example 148, 2-[[2-[rac-4,5-cis-4-(aminomethyl)-2-oxo-3-(3-oxo-4H-pyrido[3,2-b][1,4]oxazin-6-yl)-1,3-oxazolidin-5-yl]ethylamino]methyl]-2,3-dihydro-1H-indene-4-carbonitrile; formic acid], the IC50 stood at 598 nM.
The same measure, in the same setting: to `N#Cc1cccc2c1CC(NCCCC1CN(c3ccc4c(n3)NC(=O)CO4)C(=O)O1)C2` (stereo not shown) [Example 13, 2-[3-[2-oxo-3-(3-oxo-4H-pyrido[3,2-b] [1,4]oxazin-6-yl)-1,3-oxazolidin-5-yl]propylamino]-2,3-dihydro-1H-indene-4-carbonitrile; formic acid] belongs under 97.7 nM.
As to `CNC(=O)COc1cc(C)c2c(c1C)CC(CNCCC1CN(c3cnc4c(n3)NC(=O)CO4)C(=O)O1)C2` (stereo not shown) [Example 113, 2-[[4,7-dimethyl-2-[[2-[2-oxo-3-(3-oxo-4H-pyrazino[2,3-b][1,4]oxazin-6-yl)-1,3-oxazolidin-5-yl]ethylamino]methyl]-2,3-dihydro-1H-inden-5-yl]oxy]-N-methylacetamide], the half-inhibitory concentration (IC50) came out at 323 nM.
The same measure, in the same setting: to `CNC(=O)COc1cc(Cl)c2c(c1)C(N)C(CNCCC1CN(c3ccc4c(n3)NC(=O)CO4)C(=O)O1)C2` (racemic) [Example 400, N-methyl-2-[[rac-2,3-trans-3-amino-7-chloro-2-[[2-[2-oxo-3-(3-oxo-4H-pyrido[3,2-b][1,4]oxazin-6-yl)-1,3-oxazolidin-5-yl]ethylamino]methyl]-2,3-dihydro-1H-inden-5-yl]oxy]acetamide; formic acid] belongs 365 nM; to `NC(COc1cc(F)c2c(c1)CC(CNCCC1CN(c3ccc4c(n3)NC(=O)CO4)C(=O)O1)C2)C(=O)O` (stereo not shown) [Example 267, 2-Amino-3-[[7-fluoro-2-[[2-[2-oxo-3-(3-oxo-4H-pyrido[3,2-b][1,4]oxazin-6-yl)-1,3-oxazolidin-5-yl]ethylamino]methyl]-2,3-dihydro-1H-inden-5-yl]oxy]propanoic acid; formic acid], under 97.7 nM; to `N#Cc1cccc2c1CC(NCC(O)CC1CN(c3ccc4c(n3)NC(=O)CO4)C(=O)O1)C2` (stereo not shown) [Example 238, 2-[[2-Hydroxy-3-[2-oxo-3-(3-oxo-4H-pyrido[3,2-b][1,4]oxazin-6-yl)-1,3-oxazolidin-5-yl]propyl]amino]-2,3-dihydro-1H-indene-4-carbonitrile hydrochloride], 170 nM.
Same read-out and setting: to `N#Cc1cccc2c1CC(CNC[C@@H](O)[C@H]1CN(c3ccc4c(c3)NC(=O)CO4)C(=O)O1)C2` (stereo partly drawn) [Example 61, 2-[[[(2R)-2-hydroxy-2-[(5R)-2-oxo-3-(3-oxo-4H-1,4-benzoxazin-6-yl)-1,3-oxazolidin-5-yl]ethyl]amino]methyl]-2,3-dihydro-1H-indene-4-carbonitrile; formic acid] belongs 164 nM; to `N#Cc1cccc2c1CC(CN1CCC3(CN(c4ccc5c(n4)NC(=O)CO5)C(=O)O3)C(CN)C1)C2` (racemic) [Example 249, 2-[[rac-5,6-trans-6-(Aminomethyl)-2-oxo-3-(3-oxo-4H-pyrido[3,2-b][1,4]oxazin-6-yl)-1-oxa-3,8-diazaspiro[4.5]decan-8-yl]methyl]-2,3-dihydro-1H-indene-4-carbonitrile; formic acid], 108 nM; to `NC1(COc2cc(Cl)c3c(c2)CC(CNCCC2CN(c4ccc5c(n4)NC(=O)CO5)C(=O)O2)C3)CC1` (stereo not shown) [Example 178, 6-[5-[2-[[6-[(1-aminocyclopropyl)methoxy]-4-chloro-2,3-dihydro-1H-inden-2-yl]methylamino]ethyl]-2-oxo-1,3-oxazolidin-3-yl]-4H-pyrido[3,2-b][1,4]oxazin-3-one], under 97.7 nM.
On the same count and under the same terms, with `NC(=O)COc1cc(F)c2c(c1F)CC(CNCCC1CN(c3cnc4c(n3)NC(=O)CO4)C(=O)O1)C2` (stereo not shown) [Example 312, 2-[[4,7-difluoro-2-[[2-[2-oxo-3-(3-oxo-4H-pyrazino[2,3-b][1,4]oxazin-6-yl)-1,3-oxazolidin-5-yl]ethylamino]methyl]-2,3-dihydro-1H-inden-5-yl]oxy]acetamide] the figure was under 97.7 nM.
Consider `Cc1ncc(F)c2c1CC(CNCCC1(CN)CN(c3ccc4c(n3)NC(=O)CO4)C(=O)O1)C2` (stereo not shown) [Example 242, 6-[5-(Aminomethyl)-5-[2-[(4-fluoro-1-methyl-6,7-dihydro-5H-cyclopenta[c]pyridin-6-yl)methylamino]ethyl]-2-oxo-1,3-oxazolidin-3-yl]-4H-pyrido[3,2-b][1,4]oxazin-3-one], for which the half-maximal inhibitory concentration (IC50) was 778 nM.
Still for that read-out and setting: with `Cc1nc(C)c2c(c1C)CC(CNCCC1CN(c3ccc4c(n3)NC(=O)CO4)C(=O)O1)C2` (stereo not shown) [Example 93, 6-[2-oxo-5-[2-[(1,3,4-trimethyl-6,7-dihydro-5H-cyclopenta[c]pyridin-6-yl)methylamino]ethyl]-1,3-oxazolidin-3-yl]-4H-pyrido[3,2-b][1,4]oxazin-3-one] the figure was under 97.7 nM; with `O=C1COc2ncc(N3CC(CCNCC4Cc5cc(OCCn6ccnc6)cc(F)c5C4)OC3=O)nc2N1` (stereo not shown) [Example 332, 6-[5-[2-[[4-fluoro-6-(2-imidazol-1-ylethoxy)-2,3-dihydro-1H-inden-2-yl]methylamino]ethyl]-2-oxo-1,3-oxazolidin-3-yl]-4H-pyrazino[2,3-b][1,4]oxazin-3-one], 184 nM.
Take `NC1c2c(Cl)cccc2CC1CNCCC1CN(c2ccc3c(n2)NC(=O)CO3)C(=O)O1` (racemic) [Example 168, 6-[2-oxo-5-[2-[[rac-1,2-trans-1-amino-7-chloro-2,3-dihydro-1H-inden-2-yl]methylamino]ethyl]-1,3-oxazolidin-3-yl]-4H-pyrido[3,2-b][1,4]oxazin-3-one; formic acid]: the IC50 is under 97.7 nM.
Still for that read-out and setting: with `CC(N)COc1cc2c(c(Cl)n1)CC(CNCCC1CN(c3cnc4c(n3)NC(=O)CO4)C(=O)O1)C2` (stereo not shown) [Example 145, 6-[5-[2-[[3-(2-aminopropoxy)-1-chloro-6,7-dihydro-5H-cyclopenta[c]pyridin-6-yl]methylamino]ethyl]-2-oxo-oxazolidin-3-yl]-4H-pyrazino[2,3-b][1,4]oxazin-3-one; formic acid] the figure was 191 nM; with `O=C1COc2ncc(N3CC(CCNCC4Cc5c(F)cc(OCc6cc[nH]n6)c(F)c5C4)OC3=O)nc2N1` (stereo not shown) [Example 395, 6-[5-[2-[[4,7-difluoro-5-(1H-pyrazol-3-ylmethoxy)-2,3-dihydro-1H-inden-2-yl]methylamino]ethyl]-2-oxo-1,3-oxazolidin-3-yl]-4H-pyrazino[2,3-b][1,4]oxazin-3-one], 166 nM.
Still for that read-out and setting: to `N#Cc1cc(OC2CNC2)cc2c1CC(CNCCC1CN(c3ccc4c(n3)NC(=O)CO4)C(=O)O1)C2` (stereo not shown) [Example 190, 6-(azetidin-3-yloxy)-2-[[2-[2-oxo-3-(3-oxo-4H-pyrido[3,2-b][1,4]oxazin-6-yl)-1,3-oxazolidin-5-yl]ethylamino]methyl]-2,3-dihydro-1H-indene-4-carbonitrile; 2,2,2-trifluoroacetic acid] belongs under 97.7 nM.

The same experiment, now with this note: strain Escherichia coli ATCC 25922; 10-point broth dilution, optical density at 600 nm over 16 h; read-out: Escherichia coli growth inhibition IC50.
`Cc1ncc(F)c2c1CC(NCC(O)CC1CN(c3cnc4c(n3)NC(=O)CO4)C(=O)O1)C2` (single isomer, unassigned; isomer b) [Example 314, 6-[2-Oxo-5-[3-[(4-fluoro-1-methyl-6,7-dihydro-5H-cyclopenta[c]pyridin-6-yl)amino]-2-hydroxypropyl]-1,3-oxazolidin-3-yl]-4H-pyrazino[2,3-b][1,4]oxazin-3-one; formic acid, Isomer B]: the IC50 worked out at 1180 nM.
Same read-out and setting: to `Cc1ncc(F)c2c1CC(CN1CCC3(CN(c4ccc5c(n4)NC(=O)CO5)C(=O)O3)C(CN)C1)C2` (racemic) [Example 251, 6-[rac-5,6-cis-6-(Aminomethyl)-8-[(4-fluoro-1-methyl-6,7-dihydro-5H-cyclopenta[c]pyridin-6-yl)methyl]-2-oxo-1-oxa-3,8-diazaspiro[4.5]decan-3-yl]-4H-pyrido[3,2-b][1,4]oxazin-3-one] belongs 679 nM.
